The source of these data is PubChem BioAssay AID220 (DTP/NCI, 2004).

The assay concerns CD8F1 mice, subcutaneous mammary adenocarcinoma, T/C%. Description: NCI In Vivo Anticancer Drug Screen. Data for tumor model Mammary Adenocarcinoma CD8F1 (subcutaneous) in CD8F1. Particulars: higher = larger tumour. In outline:
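Tumor-bearing mice, transplantable model; readout survival or tumor size; value = treated (T) / vehicle control (C).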

Where [1] appears, read: endpoint: median tumor weight (est.), dose: 25.0 mg/kg/injection, schedule: Q07DX005 (ip), vehicle: Klucel (hydroxypropylcellulose) (HPC).

“And” between values parts separate entries of the source, which are not always exact repeats. Equal entries are not always repeated. Records with an inconclusive call do not appear. Starred links: 1 amine or outer side, 2 acyl side, 3 side chain; linkers in the order of their positions; H or OH if unused. Positions of bridges follow the written chain, without caps; N, C: chain ends. Non-standard residues stand in square brackets, D forms with d. Residues, ends and D or L forms follow the SMILES beside them. Chains are numbered I, II in the order given. Actinocin(9to1) = Cc1c2oc3c(C)ccc(C(=O)[*:1])c3nc-2c(C(=O)[*:2])c(N)c1=O; aThr = C[C@H](O)[C@H](N)C(=O)O; NMeV = CN[C@H](C(=O)O)C(C)C; Sar = CNCC(=O)O

Consider `Nc1nc(F)nc2c1ncn2C1OC(COP(=O)(O)O)C(O)C1O` (stereo not drawn), for which the T/C is 69 % of control (endpoint: median tumor weight (est.), dose: 12.5 mg/kg/injection, schedule: Q07DX005 (ip), vehicle: suspension in saline); 49 % of control under setting [1]; 84 % of control (endpoint: median tumor weight (est.), dose: 25.0 mg/kg/injection, schedule: Q07DX005 (ip), vehicle: saline); 101 % of control (endpoint: median tumor weight (est.), dose: 25.0 mg/kg/injection, schedule: Q07DX005 (ip), vehicle: suspension in saline); 77 % of control (endpoint: median tumor weight (est.), dose: 50.0 mg/kg/injection, schedule: Q07DX005 (ip), vehicle: Klucel (hydroxypropylcellulose) (HPC)); 76 % of control (endpoint: median tumor weight (est.), dose: 50.0 mg/kg/injection, schedule: Q07DX005 (ip), vehicle: suspension in saline). Besides, the T/C by setting is: (endpoint: median tumor weight (est.), dose: 100.0 mg/kg/injection, schedule: Q07DX005 (ip), vehicle: Klucel (hydroxypropylcellulose) (HPC)) 101 % of control; (endpoint: median tumor weight (est.), dose: 100.0 mg/kg/injection, schedule: Q07DX005 (ip), vehicle: saline) 75 % of control and 98 % of control; (endpoint: median tumor weight (est.), dose: 100.0 mg/kg/injection, schedule: Q07DX005 (ip), vehicle: suspension in saline) 66 % of control; (endpoint: median tumor weight (est.), dose: 200.0 mg/kg/injection, schedule: Q07DX005 (ip), vehicle: Klucel (hydroxypropylcellulose) (HPC)) 50 % of control; (endpoint: median tumor weight (est.), dose: 200.0 mg/kg/injection, schedule: Q07DX005 (ip), vehicle: suspension in saline) 50 % of control; (endpoint: median tumor weight (est.), dose: 400.0 mg/kg/injection, schedule: Q07DX005 (ip), vehicle: Klucel (hydroxypropylcellulose) (HPC)) 34 % of control. Also, where the note is “endpoint: median tumor weight (est.), dose: 400.0 mg/kg/injection, schedule: Q07DX005 (ip), vehicle: saline”, the T/C was 20 % of control.

`CCOC(=O)Nc1cc2c(c(N)n1)N=C(CN(C)c1ccccc1)CN2`: the T/C (endpoint: median tumor weight (est.), dose: 3.12 mg/kg/injection, schedule: Q07DX005 (ip), vehicle: Klucel (hydroxypropylcellulose) (HPC)) is 268 % of control; the T/C (endpoint: median tumor weight (est.), dose: 6.25 mg/kg/injection, schedule: Q07DX005 (ip), vehicle: Klucel (hydroxypropylcellulose) (HPC)) was 70 % of control; the T/C under setting [1] was 69 % of control and 79 % of control.

Regarding `Cc1c2oc3c(C)ccc(C(=O)N[C@@H]4C(=O)N[C@H](C(C)C)C(=O)N5CCC[C@H]5C(=O)N(C)CC(=O)N(C)[C@@H](C(C)C)C(=O)O[C@H]4C)c3nc-2c(C(=O)N[C@@H]2C(=O)N[C@H](C(C)C)C(=O)N3CCC[C@H]3C(=O)N(C)CC(=O)N(C)[C@@H](C(C)C)C(=O)O[C@H]2C)c(N)c1=O` (I: [aThr][dV]P[Sar][NMeV] / II: [aThr][dV]P[Sar][NMeV]; ester I:1-I:C, II:1-II:C; linker I:N-II:N via Actinocin(9to1)), the T/C was 98 % of control (endpoint: mean tumor weight, dose: 0.02 mg/kg/injection, schedule: Q01DX009 (ip), vehicle: saline); 73 % of control (endpoint: mean tumor weight, dose: 0.03 mg/kg/injection, schedule: Q01DX009 (ip), vehicle: saline + alcohol); 65 % of control (endpoint: mean tumor weight, dose: 0.04 mg/kg/injection, schedule: Q01DX009 (ip), vehicle: saline + alcohol); 28 % of control (endpoint: mean tumor weight, dose: 0.04 mg/kg/injection, schedule: Q01DX009 (ip), vehicle: saline); 36 % of control (endpoint: mean tumor weight, dose: 0.1 mg/kg/injection, schedule: Q07DX007 (ip), vehicle: saline); 5 % of control (endpoint: mean tumor weight, dose: 0.2 mg/kg/injection, schedule: Q07DX007 (ip), vehicle: saline). The T/C runs as follows: (endpoint: median tumor weight (est.), dose: 0.03 mg/kg/injection, schedule: Q07DX005 (ip), vehicle: saline) 56 % of control; (endpoint: median tumor weight (est.), dose: 0.15 mg/kg/injection, schedule: Q07DX005 (ip), vehicle: saline) 34 % of control and 49 % of control; (endpoint: median tumor weight (est.), dose: 0.3 mg/kg/injection, schedule: Q07DX005 (ip), vehicle: saline) 24 % of control; (endpoint: median tumor weight (est.), dose: 12.5 micrograms/kg/injection, schedule: Q07DX005 (ip), vehicle: saline) 66 % of control; (endpoint: median tumor weight (est.), dose: 25.0 micrograms/kg/injection, schedule: Q07DX005 (ip), vehicle: saline) 60 % of control; (endpoint: median tumor weight (est.), dose: 50.0 micrograms/kg/injection, schedule: Q07DX005 (ip), vehicle: saline) 70 % of control. In addition, the T/C is 38 % of control (endpoint: median tumor weight (est.), dose: 100.0 micrograms/kg/injection, schedule: Q07DX005 (ip), vehicle: saline); 9 % of control (endpoint: median tumor weight (est.), dose: 200.0 micrograms/kg/injection, schedule: Q07DX005 (ip), vehicle: saline); 55 % of control (endpoint: median tumor weight change, dose: 0.12 mg/kg/injection, schedule: Q01DX001 (ip), vehicle: saline); 30 % of control and 39 % of control (endpoint: median tumor weight change, dose: 0.25 mg/kg/injection, schedule: Q01DX001 (ip), vehicle: saline); 7 % of control and 27 % of control (endpoint: median tumor weight change, dose: 0.5 mg/kg/injection, schedule: Q01DX001 (ip), vehicle: saline).

`O=NN(CCF)C(=O)NC1CCCCC1`: the T/C was 87 % of control (endpoint: median tumor weight change, dose: 4.0 mg/kg/injection, schedule: Q01DX001 (ip), vehicle: Klucel (hydroxypropylcellulose) (HPC)); 44 % of control (endpoint: median tumor weight change, dose: 16.0 mg/kg/injection, schedule: Q01DX001 (ip), vehicle: Klucel (hydroxypropylcellulose) (HPC)); 45 % of control (endpoint: median tumor weight change, dose: 31.0 mg/kg/injection, schedule: Q01DX001 (ip), vehicle: Klucel (hydroxypropylcellulose) (HPC)); 30 % of control (endpoint: median tumor weight change, dose: 62.5 mg/kg/injection, schedule: Q01DX001 (ip), vehicle: Klucel (hydroxypropylcellulose) (HPC)).

In the case of `NC(CSC(c1ccccc1)(c1ccccc1)c1ccccc1)C(=O)O` (stereo not drawn), the T/C is 101 % of control (endpoint: median tumor weight (est.), dose: 32.0 mg/kg/injection, schedule: Q07DX005 (ip), vehicle: Klucel (hydroxypropylcellulose) (HPC)); 71 % of control (endpoint: median tumor weight (est.), dose: 64.0 mg/kg/injection, schedule: Q07DX005 (ip), vehicle: Klucel (hydroxypropylcellulose) (HPC)); 74 % of control (endpoint: median tumor weight (est.), dose: 128.0 mg/kg/injection, schedule: Q07DX005 (ip), vehicle: Klucel (hydroxypropylcellulose) (HPC)).

For `OCC1OC(n2cnc3c(=S)nc[nH]c32)C(O)C1O` (stereo not drawn), the T/C was 23 % of control (endpoint: median tumor weight (est.), dose: 50.0 mg/kg/injection, schedule: Q07DX005 (ip), vehicle: saline with Tween-80); 34 % of control (endpoint: median tumor weight (est.), dose: 100.0 mg/kg/injection, schedule: Q07DX005 (ip), vehicle: saline with Tween-80); 13 % of control and 37 % of control (endpoint: median tumor weight (est.), dose: 200.0 mg/kg/injection, schedule: Q07DX005 (ip), vehicle: saline with Tween-80); 8 % of control and 15 % of control (endpoint: median tumor weight (est.), dose: 400.0 mg/kg/injection, schedule: Q07DX005 (ip), vehicle: saline with Tween-80); 73 % of control (endpoint: median tumor weight change, dose: 25.0 mg/kg/injection, schedule: Q01DX001 (ip), vehicle: saline with Tween-80); 71 % of control (endpoint: median tumor weight change, dose: 50.0 mg/kg/injection, schedule: Q01DX001 (ip), vehicle: saline with Tween-80). The T/C is, setting by setting: (endpoint: median tumor weight change, dose: 100.0 mg/kg/injection, schedule: Q01DX001 (ip), vehicle: saline with Tween-80) 78 % of control; (endpoint: median tumor weight change, dose: 125.0 mg/kg/injection, schedule: Q01DX001 (ip), vehicle: saline) 78 % of control; (endpoint: median tumor weight change, dose: 200.0 mg/kg/injection, schedule: Q01DX001 (ip), vehicle: saline with Tween-80) 56 % of control; (endpoint: median tumor weight change, dose: 250.0 mg/kg/injection, schedule: Q01DX001 (ip), vehicle: Klucel (hydroxypropylcellulose) (HPC)) 89 % of control; (endpoint: median tumor weight change, dose: 250.0 mg/kg/injection, schedule: Q01DX001 (ip), vehicle: saline) 72 % of control; (endpoint: median tumor weight change, dose: 400.0 mg/kg/injection, schedule: Q01DX001 (ip), vehicle: saline with Tween-80) 60 % of control. Besides, the T/C is, setting by setting: (endpoint: median tumor weight change, dose: 500.0 mg/kg/injection, schedule: Q01DX001 (ip), vehicle: Klucel (hydroxypropylcellulose) (HPC)) 79 % of control; (endpoint: median tumor weight change, dose: 500.0 mg/kg/injection, schedule: Q01DX001 (ip), vehicle: saline) 97 % of control; (endpoint: median tumor weight change, dose: 1000.0 mg/kg/injection, schedule: Q01DX001 (ip), vehicle: Klucel (hydroxypropylcellulose) (HPC)) 52 % of control; (endpoint: median tumor weight change, dose: 1000.0 mg/kg/injection, schedule: Q01DX001 (ip), vehicle: saline) 53 % of control; (endpoint: median tumor weight change, dose: 2000.0 mg/kg/injection, schedule: Q01DX001 (ip), vehicle: Klucel (hydroxypropylcellulose) (HPC)) 26 % of control; (endpoint: median tumor weight change, dose: 2000.0 mg/kg/injection, schedule: Q01DX001 (ip), vehicle: saline) 67 % of control.
